Laboratory results: patent publication US4533657A, “Analgesic dipeptide amides and method of use and composition thereof” (Sterling Drug Inc., priority 1982, dated 1985)
Like-named read-outs stand apart in the source and are kept apart here.

Experiments:
[1] = system: guinea pig ileum longitudinal muscle with myenteric plexus; assay: Guinea Pig Ileum Test (electrically stimulated longitudinal muscle, inhibition of twitch height); format: cell-based; conditions: ratio of IC50 of reference Met5-enkephalin (given as 100) to IC50 of test compound, same preparation, averaged over four preparations
Experimental: Adult male guinea pigs (Charles River, Hartley strain) weighing 300-500 g. are decapitated, and the terminal ileum is exposed by reflecting the overlying cecum, severed at the ileocecal juncture, and removed while cutting the mesenteric attachments to avoid excessive traction on the tissue. The ileum (about 30 cm. in length) is transferred to a beaker containing warm modified Krebs-Henseleit solution (118 mM sodium chloride, 4.75 mM potassium chloride, 2.45 mM calcium chloride, 1.19 mM potassium dihydrogen phosphate, 1.2 mM magnesium sulfate, 25 mM sodium bicarbonate, 11 mM glucose, 20 μM choline chloride and 0.125 μM pyrilamine maleate). The terminal (aboral) portion (about 10 cm. in length) is discarded, and segments (3-4 cm. in length) are cut from the remainder and gently slid onto a glass rod (5-6 mm. in diameter) and arranged so that the mesenteric attachment is in a straight line. A cotton swab moistened in the solution is then carefully used to separate the longitudinal muscle from the underlying circular muscle. The longitudinal muscle and adhering myenteric plexus is then gently removed from the remaining tissue with forceps.
Strips of thus prepared longitudinal muscle are mounted in a double-jacketed organ bath (5 ml.) under tension (1.0 g.), connected to isometric transducers (Grass FT 0.03), bathed in the modified Krebs-Henseleit solution described above, aerated with oxygen-carbon dioxide (95:5) and maintained at 37° C.
Stimulators (Grass S-44) are set to deliver repetitive monphasic square wave field stimulation (supramaximal voltage, 0.10 Hz., 0.25 msec. duration) through platinum ring electrodes at the top and bottom of the bath. Regular contractions of the muscle, which result from electrically-induced liberation of acetylcholine from postganglionic parasympathetic nerves, are recorded on a polygraph (Grass model 5). Following tissue equilibration (45-60 min.) and repeated washing (every 10 min.) an aqueous solution of a reference or test compound is added to the bath in a microliter volume (1.25-250 μl) and reductions in muscle twitch height are recorded. More compound can be added […] first washing the preparation.
From the results a half-maximal inhibitory concentration (IC50) value for the compound is computed by regression analysis of a linear plot of logarithm of concentration against percent of inhibition of twitch height (probits). The ratio of the […] of a reference compound to that of a test compound tested in the same preparation is the molar potency ratio. Usually four preparations are tested simultaneously by the same person (N=4), and the resulting four molar potency ratios are averaged.
The following results were obtained using the examples as test compounds and Met^5 -enkephalin as the reference compound: […]

Male Swiss-Webster mice = assay: Mouse Acetylcholine Writhing Test; format: in vivo; conditions: 20 min, subcutaneous, approximate, acetylcholine 3.2 mg./kg. i.p. 20 min after dosing
Experimental: Male Swiss-Webster mice each weighing 18-24 g. are treated subcutaneously (10 ml./kg. injection volume) or orally with the test compound in an aqueous vehicle. Twenty minutes thereafter each mouse is injected intraperitoneally with acetylcholine (3.2 mg./kg.) in aqueous sodium chloride (0.9%). This dose of acetylcholine causes one or more characteristic writhes in the two minute period following injection in control mice which receive the aqueous vehicle not containing the test compound. […] Test compounds are screened at doses of 100 and 30 mg./kg. subcutaneously and 300 and 100 mg./kg. orally using 15 mice at each dose level. ED50 values for active compounds are estimated by probit analysis of quantal scores at four or more dose levels using 15 mice at each dose level.

rat = rat tail flick, cited from earlier work
opiate receptor = conditions: rat brain membranes; cited from earlier work
guinea pig ileum = conditions: cited from earlier work
mouse vas deferens = conditions: cited from earlier work

| Compound | Average Molar Potency Ratio [1] | other results |
| --- | --- | --- |
| C[C@@H](NC(=O)[C@@H](N)Cc1ccc(O)cc1)C(=O)NCCc1ccccc1.Cl.O [Example 1, L-tyrosyl-N-(2-phenylethyl)-D-alaninamide monohydrochloride hydrate (4:5)] | 14 | – |
| C[C@@H](NC(=O)[C@@H](N)Cc1ccc(O)cc1)C(=O)N(C)CCCc1ccccc1.Cl.O [Example 2, L-tyrosyl-N-methyl-N-(3-phenylpropyl)-D-alaninamide monohydrochloride monohydrate] | 9 | ED50 (Male Swiss-Webster mice): > 10 mg/kg |
| CCN(CCCc1ccccc1)C(=O)[C@@H](C)NC(=O)[C@@H](N)Cc1ccc(O)cc1.Cl [Example 4, L-tyrosyl-N-ethyl-N-(3-phenylpropyl)-D-alaninamide monohydrochloride] | 4 | ED50 (Male Swiss-Webster mice): > 30 mg/kg |
| C[C@@H](NC(=O)[C@@H](N)Cc1ccc(O)cc1)C(=O)NCCCCc1ccccc1.Cl [Example 5, L-tyrosyl-N-(4-phenylbutyl)-D-alaninamide monohydrochloride] | 12 | – |
| C[C@@H](NC(=O)[C@@H](N)Cc1ccc(O)cc1)C(=O)NCCCCCc1ccccc1.Cl.O [Example 6, L-tyrosyl-N-(5-phenylpentyl)-D-alaninamide monohydrochloride monohydrate] | 30 | – |
| C[C@@H](NC(=O)[C@@H](N)Cc1ccc(O)cc1)C(=O)N(CCCc1ccccc1)CCN(C)C.Cl.Cl [Example 7, L-tyrosyl-N-[2-(dimethylamino)ethyl]-N-(3-phenylpropyl)-D-alaninamide dihydrochloride] | 4 | – |
| C[C@@H](CCc1ccccc1)NC(=O)[C@@H](C)NC(=O)[C@@H](N)Cc1ccc(O)cc1.Cl [Example 8, L-tyrosyl-N-(1-S-methyl-3-phenylpropyl)-D-alaninamide monohydrochloride] | 115 | – |
| C[C@H](CCc1ccccc1)NC(=O)[C@@H](C)NC(=O)[C@@H](N)Cc1ccc(O)cc1.Cl [Example 9, L-tyrosyl-N-(1-R-methyl-3-phenylpropyl)-D-alaninamide monohydrochloride] | 12 | – |
| CSCCCN(CCCc1ccccc1)C(=O)[C@@H](C)NC(=O)[C@@H](N)Cc1ccc(O)cc1.CSCCCN(CCCc1ccccc1)C(=O)[C@@H](C)NC(=O)[C@@H](N)Cc1ccc(O)cc1.Cl.Cl.O [Example 10, L-tyrosyl-N-[3-(methylthio)propyl]-N-(3-phenylpropyl)-D-alaninamide monhydrochloride hemihydrate] | 15 | – |
| C[C@@H](NC(=O)[C@@H](N)Cc1ccc(O)cc1)C(=O)N(CCCc1ccccc1)CCC[S+](C)[O-].Cl (stereo partly drawn) [Example 11, L-tyrosyl-N-[3-(methylsulfinyl)propyl]-N-(3-phenylpropyl)-D-alaninamide monohydrochloride] | 3 | – |
| C[C@@H](NC(=O)[C@@H](N)Cc1ccc(O)cc1)C(N)=O [H-Tyr-D-Ala-NH2] | – | times less potent than morphine (rat; intravenously): greater than 10 times; times less potent than morphine (rat; intraventricularly): 200 times; times less affinity than morphine (opiate receptor): 830 times |
| C[C@@H](NC(=O)[C@@H](N)Cc1ccc(O)cc1)C(=O)NCCNCCc1ccccc1 [HTyrD-AlaNH(CH2)2 NH(CH2)2 Phenyl] | – | potency relative to Met-enkephalin (guinea pig ileum): < 1%; potency relative to Met-enkephalin (mouse vas deferens): < 1% |
| L-tyrosyl-N-(3-phenylpropyl)-D-alaninamide monohydrochloride sesquihydrate [Example 3] | 117 | – |
| Met^5 -enkephalin [reference compound] | 100 | – |
